Laboratory results published in US12091402B2 (Avilar Therapeutics, Inc., priority 2021, dated 2024).
Where two headings read alike, the source gives them in different places. *1 amine or outer side, *2 acyl side, *3 side chain or, on linkers, in order; H or OH if unused. Where a SMILES comes first, the peptide text is derived from it. Bridges are numbered along the chain shown (N, C = ends). [ ]: non-standard residue; d: D form. The star is where a group is joined. X2 = O=C(CCOCC(COCCC(=O)NCCOCCOCCOCCOC[C@H]1OC[C@H](Nc2cncc(C(F)(F)F)n2)[C@@H](O)[C@H]1O)NCC(=O)*)NCCOCCOCCOCCOC[C@H]1OC[C@H](Nc2cncc(C(F)(F)F)n2)[C@@H](O)[C@H]1O; X1 = O=C([C@@H]1C[C@H](N[*:3])CN1[*:1])[*:2]

Key:
[1] = target: T1, ASGPR receptor on the cell surface (HepG2 cells) (Homo sapiens, UniProt P07306); assay: Ternary complex formation assay (flow cytometry, HepG2); assay type: cell-based
T1 construct: host or cells: HepG2
T1 sequence (P07306 1-291): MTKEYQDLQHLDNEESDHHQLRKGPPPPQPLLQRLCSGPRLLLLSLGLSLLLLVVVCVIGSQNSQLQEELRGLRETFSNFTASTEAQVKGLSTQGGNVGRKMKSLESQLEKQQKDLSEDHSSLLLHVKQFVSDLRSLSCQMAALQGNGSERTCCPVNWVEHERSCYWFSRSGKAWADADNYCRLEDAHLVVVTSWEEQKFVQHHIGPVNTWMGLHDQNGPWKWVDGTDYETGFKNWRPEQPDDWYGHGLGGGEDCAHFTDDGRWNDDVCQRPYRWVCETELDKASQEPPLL
T1 sequence (P07307 1-311 partner): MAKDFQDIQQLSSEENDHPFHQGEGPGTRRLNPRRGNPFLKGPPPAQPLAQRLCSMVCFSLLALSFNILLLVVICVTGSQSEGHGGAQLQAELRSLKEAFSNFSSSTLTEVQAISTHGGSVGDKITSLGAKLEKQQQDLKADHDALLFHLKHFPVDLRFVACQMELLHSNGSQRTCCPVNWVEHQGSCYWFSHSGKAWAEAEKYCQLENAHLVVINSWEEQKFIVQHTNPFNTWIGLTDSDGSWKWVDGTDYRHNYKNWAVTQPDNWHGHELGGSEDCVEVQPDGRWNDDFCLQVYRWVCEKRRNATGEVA
How it was run: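 HepG2 cells (1×10^5/well) incubated 1 h at 4 °C with 100 nM AF488-labeled anti-human IgG plus serial IgG-based degrader, or 100 nM AF488 rabbit anti-DNP plus serial DNP-based degrader. After washing, cell-associated AF488 MFI read by flow cytometry; peak MFI marks optimal degrader concentration for ternary complex.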

HepG2 cells = assay: Cellular uptake assay of AF488-labeled antibody (HepG2); assay type: cell-based
How it was run: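 Ternary-complex uptake via ASGPR was imaged after fixation: the read-out is AF488-positive HepG2 cells divided by total DAPI nuclei. Degrader dilutions (IgG- or DNP-based, 0.1% DMSO final) were co-incubated 6 h at 37° C. with 100 nM of the corresponding fluorescent antibody.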

IgG = assay: Affinity to IgG by surface plasmon resonance (SPR); assay type: binding
Protocol: Immobilization levels ranging from 1000-1300 resonance units (RU) are obtained. The running buffer is 10 mM HEPES, pH 7.4, 400 mM NaCl, 0.005% P20, […].

ASGPR = target: T2, ASGPR (Homo sapiens, UniProt P07306); assay: Affinity to ASGPR by surface plasmon resonance (SPR)
T2 sequence (P07306 1-291): T1 sequence (P07306 1-291)

[2] = HepG2 cells, 100 nM AF488-labeled antibody, 37° C. for 6 hours, class symbols, read-out: Uptake Assay EC50
[3] = Biacore 8K, 25° C., IgG on CM5 chip, read-out: IgG SPR Binding Kd
[4] = HepG2 cells, ternary complex formation, read-out: TCF EC50
[5] = HepG2 cells, read-out: Uptake EC50
[6] = Ternary Complex EC50 (nM), HepG2 cells, 100 nM AF488-labeled antibody, 1 hour at 4° C., class symbols
[7] = Homo sapiens, HepG2, 6 h, read-out: Uptake Assay EC50 (nM)

SMILES | Kd (ASGPR) [nM] | EC50 [1, 4] [nM] | EC50 (HepG2 cells; [5]) [nM] | Kd (IgG; SPR, read-out: IgG KD) [nM] | EC50 [1] [nM] | further results
CC(C)C[C@@H]1NC(=O)[C@H](Cc2cnc[nH]2)NC(=O)[C@H](Cc2c[nH]c3ccccc23)NC(=O)[C@H](C)NC(=O)[C@@H]2CSSC[C@H](NC(=O)[C@H](Cc3c[nH]c4ccccc34)NC(=O)[C@H](C(C)C)NC(=O)[C@H](CC(C)C)NC(=O)[C@H](CCC(=O)O)NC(=O)CNC1=O)C(=O)N[C@@H]([C@@H](C)O)C(=O)N1CCC[C@@H]1C(=O)N1C[C@@H](NC(=O)CCCc3cn(CCCCCC(=O)NC(COCCC(=O)NCCOCCOCCOCCOC[C@H]4OC[C@H](Nc5cncc(C(F)(F)F)n5)[C@@H](O)[C@H]4O)COCCC(=O)NCCOCCOCCOCCOC[C@H]4OC[C@H](Nc5cncc(C(F)(F)F)n5)[C@@H](O)[C@H]4O)nn3)C[C@H]1C(=O)N[C@@H](CC(=O)O)C(=O)N2 [Compound 52] | – | – | – | – | – | EC50 ([1]; HepG2 cells, 100 nM AF488-labeled antibody, 1 hour at 4° C., class symbols, read-out: Ternary Complex EC50): < 100 nM; EC50 (HepG2 cells; [2]): < 100 nM; Kd (IgG; [3]): < 100 nM
CC(C)C[C@@H]1NC(=O)[C@H](Cc2cnc[nH]2)NC(=O)[C@H](Cc2c[nH]c3ccccc23)NC(=O)[C@H](C)NC(=O)[C@@H]2CSSC[C@H](NC(=O)[C@H](Cc3c[nH]c4ccccc34)NC(=O)[C@H](C(C)C)NC(=O)[C@H](CC(C)C)NC(=O)[C@H](CCC(=O)O)NC(=O)CNC1=O)C(=O)N[C@@H]([C@@H](C)O)C(=O)N1CCC[C@@H]1C(=O)N1C[C@@H](NC(=O)C3CCC(C(=O)NC[C@H]4OC[C@H](Nc5cncc(C(F)(F)F)n5)[C@@H](O)[C@H]4O)CC3)C[C@H]1C(=O)N[C@@H](CC(=O)O)C(=O)N2 (stereo partly drawn) [Compound 69] | 100 to 500 | > 1000 | > 1000 | < 100 | – | –
CC(C)C[C@@H]1NC(=O)[C@H](Cc2cnc[nH]2)NC(=O)[C@H](Cc2c[nH]c3ccccc23)NC(=O)[C@H](C)NC(=O)[C@@H]2CSSC[C@H](NC(=O)[C@H](Cc3c[nH]c4ccccc34)NC(=O)[C@H](C(C)C)NC(=O)[C@H](CC(C)C)NC(=O)[C@H](CCC(=O)O)NC(=O)CNC1=O)C(=O)N[C@@H]([C@@H](C)O)C(=O)N1CCC[C@@H]1C(=O)N1C[C@@H](NC(=O)COc3ccc(CC(=O)NC[C@H]4OC[C@H](Nc5cncc(C(F)(F)F)n5)[C@@H](O)[C@H]4O)cc3)C[C@H]1C(=O)N[C@@H](CC(=O)O)C(=O)N2 [Compound 61] | < 100 | < 100 | < 100 | < 100 | – | –
O=C(CCOCC(COCCC(=O)NCCOCCOCCOCCOC[C@H]1OC[C@H](Nc2nccc(C(F)(F)F)n2)[C@@H](O)[C@H]1O)NC(=O)COCCOCCOCCNc1ccc([N+](=O)[O-])cc1[N+](=O)[O-])NCCOCCOCCOCCOC[C@H]1OC[C@H](Nc2nccc(C(F)(F)F)n2)[C@@H](O)[C@H]1O [Compound 32, 3,3′-((2-(2-(2-(2-(2-((2,4-dinitrophenyl)amino)ethoxy)ethoxy)ethoxy)acetamido)propane-1,3-diyl)bis(oxy))bis(N-(1-((2R,3R,4R,5S)-3,4-dihydroxy-5-((4-(trifluoromethyl)pyrimidin-2-yl)amino)tetrahydro-2H-pyran-2-yl)-2,5,8,11-tetraoxatridecan-13-yl)propanamide)] | < 100 | < 100 | < 100 | < 100 | – | EC50 [1, 6]: < 100 nM; EC50 (HepG2 cells; [7]): < 100 nM
CC(C)C[C@@H]1NC(=O)[C@H](Cc2c[nH]cn2)NC(=O)[C@H](Cc2c[nH]c3ccccc23)NC(=O)[C@H](C)NC(=O)[C@@H]2CSSC[C@H](NC(=O)[C@H](Cc3c[nH]c4ccccc34)NC(=O)[C@H](C(C)C)NC(=O)[C@H](CC(C)C)NC(=O)[C@H](CCC(=O)N(C)C)NC(=O)CNC1=O)C(=O)N[C@@H]([C@@H](C)O)C(=O)N1CCC[C@@H]1C(=O)N1C[C@@H](NC(=O)CNC(COCCC(=O)NCCOCCOCCOCCOC[C@H]3OC[C@H](Nc4cncc(C(F)(F)F)n4)[C@@H](O)[C@H]3O)COCCC(=O)NCCOCCOCCOCCOC[C@H]3OC[C@H](Nc4cncc(C(F)(F)F)n4)[C@@H](O)[C@H]3O)C[C@H]1C(=O)N[C@@H](CC(N)=O)C(=O)N2 [Compound 78] (cyclo(AWHLGE(NMe2)LVWCT[dP][X1](X2)NC); disulfide 10-15) | < 100 | – | < 100 | < 100 | – | EC50 ([1]; TCF EC50, HepG2 cells, ternary complex formation): < 100 nM
CC(C)C[C@@H]1NC(=O)[C@H](Cc2cnc[nH]2)NC(=O)[C@H](Cc2c[nH]c3ccccc23)NC(=O)[C@H](C)NC(=O)[C@@H]2CSSC[C@H](NC(=O)[C@H](Cc3c[nH]c4ccccc34)NC(=O)[C@H](C(C)C)NC(=O)[C@H](CC(C)C)NC(=O)[C@H](CCC(=O)O)NC(=O)CNC1=O)C(=O)N[C@@H]([C@@H](C)O)C(=O)N1CCC[C@@H]1C(=O)N1C[C@H](NC(=O)COCCOCC(=O)NC[C@H]3OC[C@H](Nc4cncc(C(F)(F)F)n4)[C@@H](O)[C@H]3O)C[C@H]1C(=O)N[C@@H](CC(=O)O)C(=O)N2 [Compound 91] | – | < 100 | < 100 | < 100 | – | –
CC(C)C[C@@H]1NC(=O)[C@H](Cc2c[nH]cn2)NC(=O)[C@H](Cc2c[nH]c3ccccc23)NC(=O)[C@H](C)NC(=O)[C@@H](NC(=O)[C@H](CC(=O)O)NC(=O)CCOCCOCCOCCOCCNC(=O)CCCc2cn(CCCCCC(=O)NC(COCCC(=O)NCCOCCOCCOCCOC[C@H]3OC[C@H](Nc4nccc(C(F)(F)F)n4)C[C@H]3O)COCCC(=O)NCCOCCOCCOCCOC[C@H]3OC[C@H](Nc4nccc(C(F)(F)F)n4)C[C@H]3O)nn2)CSSC[C@@H](C(=O)N[C@H](C(N)=O)[C@@H](C)O)NC(=O)[C@H](Cc2c[nH]c3ccccc23)NC(=O)[C@H](C(C)C)NC(=O)[C@H](CC(C)C)NC(=O)[C@H](CCC(=O)O)NC(=O)CNC1=O [Compound 88] | > 1000 | – | > 1000 | – | > 1000 | –
CC(C)C[C@@H]1NC(=O)[C@H](Cc2c[nH]cn2)NC(=O)[C@H](Cc2c[nH]c3ccccc23)NC(=O)[C@H](C)NC(=O)[C@@H]2CSSC[C@H](NC(=O)[C@H](Cc3c[nH]c4ccccc34)NC(=O)[C@H](C(C)C)NC(=O)[C@H](CC(C)C)NC(=O)[C@H](CCC(=O)O)NC(=O)CNC1=O)C(=O)N[C@@H]([C@@H](C)O)C(=O)N1CCC[C@@H]1C(=O)N1C[C@@H](NC(=O)COCCOCC(=O)NC(COCCC(=O)NCCOCCOCCOCCOC[C@H]3OC[C@H](Nc4cncc(C(F)(F)F)n4)[C@@H](O)[C@H]3O)COCCC(=O)NCCOCCOCCOCCOC[C@H]3OC[C@H](Nc4cncc(C(F)(F)F)n4)[C@@H](O)[C@H]3O)C[C@H]1C(=O)N[C@@H](CC(=O)O)C(=O)N2 [Compound 41] | – | – | – | – | < 100 | EC50 (HepG2 cells; [2]): < 100 nM; Kd (IgG; [3]): < 100 nM
O=C(CCOCCNC(=O)COCCOCCOCCNc1ccc([N+](=O)[O-])cc1[N+](=O)[O-])NCCOCCOCCOCCOC[C@@]12CO[C@@H](O1)[C@H](Nc1nc(Cl)ns1)[C@@H](O)[C@H]2O [Compound 29, N-(1-((1S,2R,3R,4R,5S)-4-((3-chloro-1,2,4-thiadiazol-5-yl)amino)-2,3-dihydroxy-6,8-dioxabicyclo[3.2.1]octan-1-yl)-2,5,8,11-tetraoxatridecan-13-yl)-3-((14-((2,4-dinitrophenyl)amino)-4-oxo-6,9,12-trioxa-3-azatetradecyl)oxy)propanamide] | 100 to 500 | – | – | – | – | EC50 [1, 6]: < 100 nM; EC50 (HepG2 cells; [7]): < 100 nM
CC(C)C[C@@H]1NC(=O)[C@H](Cc2c[nH]cn2)NC(=O)[C@H](Cc2c[nH]c3ccccc23)NC(=O)[C@H](C)NC(=O)[C@@H]2CSSC[C@H](NC(=O)[C@H](Cc3c[nH]c4ccccc34)NC(=O)[C@H](C(C)C)NC(=O)[C@H](CC(C)C)NC(=O)[C@H](CCC(=O)O)NC(=O)CNC1=O)C(=O)N[C@@H]([C@@H](C)O)C(=O)N1CCC[C@@H]1C(=O)N1C[C@@H](NC(=O)CNC(COCCC(=O)NCCOCCOCCOCCO[C@@H]3O[C@H](CO)[C@H](O)[C@H](O)[C@H]3Nc3cncc(C(F)(F)F)n3)COCCC(=O)NCCOCCOCCOCCO[C@@H]3O[C@H](CO)[C@H](O)[C@H](O)[C@H]3Nc3cncc(C(F)(F)F)n3)C[C@H]1C(=O)N[C@@H](CC(=O)O)C(=O)N2 [Compound 71] | < 100 | – | < 100 | – | < 100 | –
